Values quoted from earlier work in patent US20240082222A1, “4-CHLORO-N-[2-[(4-CHLOROPHENYL)METHYL]-3-OXO-1,2,4-THIADIAZOL-5-YL]BENZAMIDE FOR USE IN MEDICINE” (Betagenon AB, priority 2021, published 2024).

Tests used:
[1] = mice, lumbar disc puncture and postoperative pain models; cited from earlier work
[2] = 1000 mg/day in suspension, day 28, patients with type-2 diabetes; cited from earlier work

O=C(Nc1nc(=O)n(Cc2ccc(Cl)cc2)s1)c1ccc(Cl)cc1 [compound of formula I, 4-chloro-N-[2-[(4-chlorophenyl)methyl]-3-oxo-1,2,4-thiadiazol-5-yl]benzamide]
treatment of pain (mechanical hypersensitivity) [1]: effective at treating pain
mean Cmax [2]: 55 µg/mL

CN(C)C(=N)N=C(N)N [metformin, reference compound]
treatment of pain (mechanical hypersensitivity) [1]: effective at treating pain
